Results as given in US7517875B2, “Piperidine derivatives having CCR3 antagonism” (Teijin Limited, priority 2002, dated 2009).

Target: T1, CCR3 receptor (Homo sapiens, UniProt P51677)
T1 construct: expressed in transfected cells; host or cells: K562 cells
T1 sequence (P51677 1-355): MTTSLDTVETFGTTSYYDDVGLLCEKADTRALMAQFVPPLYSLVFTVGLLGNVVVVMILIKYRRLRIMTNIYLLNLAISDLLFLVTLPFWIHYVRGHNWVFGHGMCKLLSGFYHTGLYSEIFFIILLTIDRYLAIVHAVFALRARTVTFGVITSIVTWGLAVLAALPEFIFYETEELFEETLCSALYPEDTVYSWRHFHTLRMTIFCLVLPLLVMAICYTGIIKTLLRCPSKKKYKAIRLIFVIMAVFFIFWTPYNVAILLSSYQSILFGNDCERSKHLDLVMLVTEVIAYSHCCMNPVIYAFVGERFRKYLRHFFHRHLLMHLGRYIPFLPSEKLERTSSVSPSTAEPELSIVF
Assay: Inhibition of eotaxin-induced intracellular calcium concentration increase in CCR3-expressing cells
Assay type: cell-based
Conditions: 2 μM concentration of compound; CCR3-expressing K562 cells; human eotaxin 0.5 μg/ml; read-out: inhibition of eotaxin-induced intracellular calcium concentration increase (Suppression)
Protocol: Measurement of Inhibiting Power of Test Compounds Against Eotaxin-Induced Intracellular Calcium Concentration Increase in CCR3-Expressing Cells
K562 cells stably expressing CCR3 receptor were used in the following method for measurement of the inhibiting power of compounds of the invention against intracellular calcium concentration increase.
The CCR3-expressing K562 cells were suspended in HBSS solution (Hanks' Balanced Salt Solution, Gibco BRL) containing 10 mM HEPES (N-[2-hydroxyethyl]piperazine-N′-[2-ethanesulfonic acid], Gibco BRL), and then 1 mM Fura-2 acetoxymethyl ester (product of Dojin Kagaku) was added to a final concentration of 1 μM and the mixture was incubated at 37° C. for 30 minutes. After rinsing the cells, they were added simultaneously with the test compound into a 96-well white plate (Falcon), the agonist was added after 5 minutes, the mixture was excited at 340 nm and 380 nm, and the 340/380 ratio was monitored to measure the intracellular calcium concentration. Human eotaxin (product of Genzyme Techne) (0.5 μg/ml) was used as an agonist. The inhibiting power of the test compound was determined by measuring the intracellular calcium concentration upon treatment of the CCR3-expressing K562 cells with the test compound 5 minutes before eotaxin stimulation, and calculating the suppression by the following formula. Suppression (%)={1−(A−B)/(C−B)}×100 (A: Intracellular calcium concentration upon stimulation with eotaxin after treatment with test compound, B: Intracellular calcium concentration without stimulation, C: Intracellular calcium concentration upon stimulation with eotaxin without treatment with test compound)

First: COCCNC(=O)c1cccc2[nH]c(NCC3CCN(Cc4cc(Cl)ccc4O)CC3)nc12 [1-4-10, 2-{[1-(5-chloro-2-hydroxy-benzyl)-piperidin-4-ylmethyl]-amino}-1H-benzimidazole-4-carboxylic acid (2-methoxy-ethyl)-amide]
Second: COC(=O)c1cccc2[nH]c(NCC3CCN(Cc4cc(Cl)cc(Cl)c4O)CC3)nc12 [1-4-1, 2-{[1-(3,5-dichloro-2-hydroxy-benzyl)-piperidin-4-ylmethyl]-amino}-1H-benzimidazole-4-carboxylic acid methyl ester]
The inhibition at 2 µM of the first is higher: at least 80% for the first, 20 to 50% for the second.

In the case of CC(=O)NCCC(=O)Nc1cccc2[nH]c(NCC3CCN(Cc4cccc5ccccc45)CC3)nc12 [1-3-1, 3-acetylamino-N-{2-[(1-naphthalen-1-ylmethyl-piperidin-4-ylmethyl)-amino]-1H-benzimidazol-4-yl}-propionamide], the inhibition at 2 µM is reported as at least 80%.

Same assay, conditions: 10 μM concentration of compound; CCR3-expressing K562 cells; human eotaxin 0.5 μg/ml; read-out: inhibition of eotaxin-induced intracellular calcium concentration increase (Suppression)

c1ccc(CCCCN2CCC(CNc3nc4ccccc4[nH]3)CC2)cc1 [1-2-170, (1H-benzimidazol-2-yl)-[1-(4-phenyl-butyl)-piperidin-4-ylmethyl]-amine] and O=C(O)c1ccc2[nH]c(NCC3CCN(CCCc4ccccc4)CC3)nc2c1 [1-5-20, 2-{[1-(3-phenyl-propyl)-piperidin-4-ylmethyl]-amino}-1H-benzimidazole-5-carboxylic acid] fall in the same range of inhibition at 10 µM: 50 to 80% for the first, 50 to 80% for the second.

CCNC(=O)Nc1cccc2[nH]c(NCC3CCN(Cc4ccc(Cl)c(Cl)c4)CC3)nc12 [1-3-59, 1-(2-{[1-(3,4-dichloro-benzyl)-piperidin-4-ylmethyl]-amino}-1H-benzimidazol-4-yl)-3-ethyl-urea] and Nc1cccc2[nH]c(NCC3CCN(Cc4ccc(Cl)c(Cl)c4)CC3)nc12 [1-3-61, N2-[1-(3,4-dichlorobenzyl)-piperidin-4-ylmethyl]-1H-benzimidazole-2,4-diamine] cannot be ordered by inhibition at 10 µM: at least 80% for the first, at least 80% for the second.

Cn1c(CN2CCC(CNc3nc4ccccc4[nH]3)CC2)cc2ccccc21 [1-2-1, (1H-benzimidazol-2-yl)-[1-(1-methyl-1H-indol-2-ylmethyl)-piperidin-4-ylmethyl]-amine] and Clc1ccc(CN2CCC(CNc3nc4ccccc4[nH]3)CC2)cc1Cl [1-1-1, (1H-benzoimidazol-2-yl)-[1-(3,4-dichloro-benzyl)-piperidin-4-ylmethyl]-amine] cannot be ordered by inhibition at 10 µM: at least 80% for the first, at least 80% for the second.
